Source: patent US4950669A, “Methods and compositions for promoting growth of animals” (priority 1987, dated 1990)
Where a SMILES comes first, the peptide text is derived from it.

Experiments:
[1] = 28-day chicken growth study, feed or i.m. injection (Example XII); format: in vivo, chickens; details: feed 30 g/ton
Experimental: Portions of N-morpholinyl-β-benzoyl-propionamide were admixed with chicken feed at 1 mg/kg and a 2 mg/kg, respectively. Another portion was formulated into an injectable formulation at a concentration of 2% in polyethylene glycol. The N-morpholinyl-β-benzoylpropionamide was then administered to chickens, either by i.m. injection or in feed, over 28-day period. One group of controls received no medication, while another group of controls received Bacitracin MD in its feed at 30 g/ton. Those chickens receiving intramuscular injections were injected once a week with a dosage of either 1 mg/kg or 2 mg/kg, based on body weight. Birds were weighed on days 0, 14 and 28.

[2] = 44-day floor-pen study in chickens (Example XV); format: in vivo; details: feed 30 g/ton, 44 days
Source text: There were 60 chickens per replication, 3 replications per treatment. One group of controls was unmedicated, while a second control group received Bacitracin in the feed at 30 g/ton.

[3] = 21-day battery study in chickens (Example XIII); format: in vivo; details: feed 30 g/ton
Experimental: N-morpholinyl-β-benzoyl-propionamide was admixed with chicken feed at concentrations of 1.0 ppm, 7.5 ppm and 15 ppm. A 21-day battery study was conducted with the NMBP-containing feed. One group of controls was unmedicated, while a second control group received Bacitracin MD in its feed at 30 g/ton. The birds were fed ad libitum and weighed on days 7, 14 and 21. There were 10 birds per replication, 4 replications in controls and 2 replications per drug treatment.

[4] = 44-day floor pen study in chickens (Example XIV); format: in vivo; details: feed 30 g/ton
Experimental: A 44-day floor pen study was conducted in which n-morpholinyl-β-benzoyl-propionamide was administered in chicken feed at concentrations of 1 ppm, 2.5 ppm, 5 ppm, 10 ppm, 20 ppm, 40 ppm and 60 ppm. One group of controls received no medication in its feed, while a second control group received Bacitracin MD in its feed at 30 g/ton. Birds were fed ad libitum. There were 5 replications per treatment, 50 birds per replication. Birds were weighed to determine weight gain and feed-to-gain ration after 35 days and 44 days.

With `CC[C@H](C)[C@H](N)C1=N[C@H](C(=O)N[C@@H](CC(C)C)C(=O)N[C@H](CCC(=O)O)C(=O)N[C@H](C(=O)N[C@H]2CCCCNC(=O)[C@H](CC(N)=O)NC(=O)[C@@H](CC(=O)O)NC(=O)[C@H](Cc3cnc[nH]3)NC(=O)[C@@H](Cc3ccccc3)NC(=O)[C@H]([C@@H](C)CC)NC(=O)[C@@H](CCCN)NC2=O)[C@@H](C)CC)CS1` [Bacitracin MD, reference compound] (HELM PEPTIDE1{[CC[C@H](C)[C@H](N)C1=N[C@H](C(=O)[*:2])CS1].L.[dE].I.K.[NCCC[C@@H](N[*:1])C(=O)[*:2]].I.[dF].H.[dD].N}$PEPTIDE1,PEPTIDE1,5:R3-11:R2$$$V2.0) the “Average Weight” value ([1]; Day 0 (baseline)) was 98.6 g, the “Average Weight” value ([1]; Day 14) was 475.6 g and the “Feed Conversion” value ([1]; Day 14) was 1.37. For the same molecule, the “Weight Gain” value ([1]; Day 14) was 377.0 g, the “Average Weight” value ([1]; Day 28) was 1026.9 g and the “Feed Conversion” value ([1]; Day 28) was 1.58. The “Weight Gain” value ([1]; Day 28) was 928.3 g, the “Average Live Bird Weight” value [2] was 2.11 kg and the “Feed Conversion” value [2] was 1.75. The F/G ([3]; Day 7) was 1.37, the “Weight Gain” value ([3]; Day 7) was 337 g and the F/G ([3]; Day 14) was 1.47. For the same molecule, the “Weight Gain” value ([3]; Day 14) was 707 g, the F/G ([3]; Day 21) was 1.58 and the “Weight Gain” value ([3]; Day 21) was 1155 g. For the same molecule, the F/G ([4]; Day 35) was 1.59, the “Weight Gain” value ([4]; Day 35) was 1376 g and the F/G ([4]; Day 44) was 1.72. For the same molecule, the “Weight Gain” value ([4]; Day 44) was 1909 g and the “growth results in words” value ([4]; house cleaned and disinfected just prior to study) was “lack of positive results”.
